From patent publication US20250041266A1, “S1P MODULATOR IMMEDIATE RELEASE DOSAGE REGIMEN” (Novartis AG, priority 2014, published 2025)

What was measured:
cloned human S1P1 = target: T1, cloned human S1P1 (Homo sapiens, UniProt P21453); test: In-vitro affinity, EC50 for cloned human S1P1; format: biochemical
T1 construct: expressed in transfected cells

cloned human S1P5 = target: T2, cloned human S1P5 (Homo sapiens, UniProt Q9H228); test: In-vitro affinity, EC50 for cloned human S1P5; format: biochemical
T2 construct: expressed in transfected cells
T2 sequence (Q9H228 whole entry): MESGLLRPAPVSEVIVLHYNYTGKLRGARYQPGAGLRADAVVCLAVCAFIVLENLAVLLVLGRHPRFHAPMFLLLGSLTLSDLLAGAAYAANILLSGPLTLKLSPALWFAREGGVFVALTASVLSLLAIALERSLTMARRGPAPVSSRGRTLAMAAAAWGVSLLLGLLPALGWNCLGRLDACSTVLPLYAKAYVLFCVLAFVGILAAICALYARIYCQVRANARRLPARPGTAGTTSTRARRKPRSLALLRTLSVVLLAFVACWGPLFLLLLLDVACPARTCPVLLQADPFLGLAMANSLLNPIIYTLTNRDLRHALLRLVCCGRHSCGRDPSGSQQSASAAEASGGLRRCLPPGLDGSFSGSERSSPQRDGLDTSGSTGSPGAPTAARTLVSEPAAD

[1] = administration of 10 mg of siponimod; cited from earlier work
[2] = test system: PLP139-151 induced experimental autoimmune encephalomyelitis (EAE) in SJL/J mice; test: Relapse and progression in PLP139-151 induced EAE; format: in vivo; details: 3 mg/kg p.o. daily, started three days after first clinical symptoms; FIG. 2
Procedure: Female SJL/J mice were immunized with 50 μg PLP139-151 in CFA, followed by one injection of 200 ng Pertussis toxin, i.p.. Three days after the first clinical symptoms, the mice were randomized to either vehicle or BAF312 and treated daily with 3 mg/kg BAF312 p.o..

[3] = Clinical study in SPMS: cardiac monitoring at treatment initiation; format: in vivo, patients with Secondary Progressive Multiple Sclerosis
Excerpt: This is a randomized, multicenter, double-blind, placebo-controlled parallel-group study in approximately 1530 patients with SPMS. Patients are randomized (2:1) to receive either BAF312 or placebo.
The Double-blind treatment epoch starts at randomization. Patients are randomly assigned to either siponimod or placebo. Randomized patients begin with a six-day dose titration Patients are monitored during the dose titration period. During the dose titration, all patients are expected to complete a study visit on the first day of dosing and on day 7. Patients have a study visit on Day 28 and then continue on a visit schedule every 3 months. The treatment duration for individual patients is variable (likely ranging from approximately 23 to 42 months) based on when the study-stop criteria are met.
All patients start the treatment with a 5-day dose titration pack (0.25 mg, 0.25 mg, 0.5 mg, 0.75 mg, 1.25 mg) continuing to a 2 mg siponimod/placebo dose.
Sitting heart rate and blood pressure should be measured in triplicate before the first dose of BAF312, then hourly for 6 hours thereafter (by the Independent First Dose Administrator). When obtaining the pre-dose heart rate before the first dose, the patient should be allowed to sit and rest for 5 minutes before taking the sitting heart rate. Triplicate repeat sitting heart rate and blood pressure will then be made at 1-2 minute intervals. The sitting heart rate and blood pressure measurements should be taken as a baseline reading for both heart rate and blood pressure (before the first dose of BAF312). For comparison to the post-dose heart rate values, the lowest pre-dose value of heart rate should be used. Patients should receive the first dose of BAF312 before 12:00 PM (noon) in the outpatient setting. • 1. In house (clinical/office/hospital) cardiac monitoring, of at least 6 hours, on Day 1 (treatment initiation): • Heart rate and blood pressure will be monitored in triplicate every hour for 6 hours. • 12-lead ECG will be done before dosing, then at 3 hours post-dose and 6 hours post dose • Patients will only be discharged if they meet the following discharge criteria: • Heart rate must be at least 50 bpm or maximally 10 bpm lower than the baseline value • Heart rate must not be the lowest value measured during the observation period • Patients must have no symptoms related to decreased heart rate • ECG at 6 hours should not show any new significant treatment-emergent ECG abnormalities, other than sinus bradycardia, not observed at the patient's pre-dose ECG. • 2. If the discharge criteria are not met at the 6-hour time point, monitoring beyond 6 hours will be performed until the discharge criteria are met. • 3. Patients experiencing a clinically relevant treatment-related symptomatic event (e.g. chest pain, dizziness, palpitations, syncope, nausea and vomiting, etc) associated with reduction of the heart rate together with ECG changes at any time during the 6 hour monitoring period should be discontinued from treatment. • 4. Patients experiencing a symptomatic event, (e.g. chest pain, dizziness, palpitations, syncope, nausea and vomiting) not associated with reduction of the heart rate and without ECG changes, which occur at any time during the 6-hour monitoring period may be discharged, provided they meet the discharge criteria, but must return on Day 2 for the second dose and will be re-monitored as on Day 1. • 5. Mobile heart rate monitoring with telemetry, or a device with similar (or better) registration capability, will be used for continuous registration of heart rate and cardiac events, minimally 6 h post-dose, for Expanded Cardiac Monitoring patients during their outpatient phase of the BAF312 titration period. If MCT is not possible, Patient will be required to wear a Holter on Screening, Day 1 and Day 4 for 24 hours and for 6 hours on Day 7. The patients who will wear a Holter will need make the study visits to have the Holter machine attached. • 6. On Day 4: • a. […]

S1P5 = S1P5 (Homo sapiens, UniProt Q9H228); test: EC50 for S1P5; format: biochemical; details: as quoted in Example 3.1
Chain of S1P5 (Q9H228 whole entry, species assumed): as the sequence (Q9H228 whole entry) above

S1P1 = S1P1 (Homo sapiens, UniProt P21453); test: EC50 for S1P1; format: biochemical; details: as quoted in Example 3.1
Chain of S1P1 (P21453 whole entry, species assumed): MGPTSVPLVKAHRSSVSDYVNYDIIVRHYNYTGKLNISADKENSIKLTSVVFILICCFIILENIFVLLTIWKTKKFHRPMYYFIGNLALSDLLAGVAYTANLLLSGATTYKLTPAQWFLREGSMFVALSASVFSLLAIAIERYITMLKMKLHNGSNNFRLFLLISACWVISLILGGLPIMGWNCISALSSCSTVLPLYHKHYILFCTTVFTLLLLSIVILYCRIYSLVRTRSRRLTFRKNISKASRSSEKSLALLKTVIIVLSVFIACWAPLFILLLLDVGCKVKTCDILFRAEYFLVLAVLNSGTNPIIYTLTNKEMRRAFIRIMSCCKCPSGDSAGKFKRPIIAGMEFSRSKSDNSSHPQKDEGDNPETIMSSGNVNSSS

[4] = blinded data (siponimod or placebo)
[5] = blinded data (siponimod or placebo), AE data for 775 patients

T1 sequence (P21453 whole entry): as the sequence (P21453 whole entry, species assumed) above

| Compound | EC50 (cloned human S1P1) | EC50 (cloned human S1P5) | decrease in heart rate [1] | occurrence of relapses (relapse onset) [2] | occurrence of subsequent progression (EAE score and body weight) [2] | 12-lead ECG: cases of 2nd degree AV block ([3]; blinded data (siponimod or placebo 2:1), 5-day titration then 2 mg, post-dose ECG, 691 patients) | cases of 2.1 or Mobitz II AV blocks or high degree AV blocks [3, 4] | cases of symptomatic 2nd degree AV blocks [3, 4] | symptomatic bradyarrhythmia events [3, 4] | Holter: patients with AV block 2nd degree Mobitz I night-time episode <3 sec ([3]; blinded data (siponimod or placebo), Day 1, expanded monitoring group, 651 patients) | MCT: patients with AV block 2nd degree Mobitz I ([3]; blinded data (siponimod or placebo), on Days 3 and 4, MCT or Holter post-dose, 651 patients) | AE AV block 2nd degree [3, 5] | AE bradycardia [3, 5] | AE sinus bradycardia [3, 5] | Cardiac disorders AEs reported [3, 5] | SAE of asymptomatic 2nd degree AV block Mobitz I ([3]; blinded data, patient with pre-existing AV block 1st degree receiving carbamazepine, SAE data for 862 patients) | EC50 (S1P5) | EC50 (S1P1) |
| --- | --- | --- | --- | --- | --- | --- | --- | --- | --- | --- | --- | --- | --- | --- | --- | --- | --- | --- |
| CCc1cc(/C(C)=N/OCc2ccc(C3CCCCC3)c(I)c2)ccc1CN1CC(C(=O)O)C1 [compound A, (E)-1-(4-(1-(((4-cyclohexyl-3-iodobenzyl)oxy)imino)ethyl)-2-ethylbenzyl)azetidine-3-carboxylic acid] | 2.2 nM | 1.35 nM |  |  |  |  |  |  |  |  |  |  |  |  |  |  |  |  |
| CCc1cc(/C(C)=N/OCc2ccc(C3CCCCC3)c(C(F)(F)F)c2)ccc1CN1CC(C(=O)O)C1 [siponimod, 1-{4-[1-((E)-4-cyclohexyl-3-trifluoromethyl-benzyloxyimino)-ethyl]-2-ethyl-benzyl}-azetidine-3-carboxylic acid] | 0.9 nM | 0.79 nM | approximately 10 beats/min | strongly inhibited | strongly inhibited | no cases | No cases | No cases | No symptomatic bradyarrhythmia events | 1 patient | 2 patients | 2 (0.3%) patients (%) | 17 (2.2%) patients (%) | 8 (1.0%) patients (%) | 54 (7%) patients (%) | 1 SAE | 1 nM | 0.4 nM |
